Data reported in patent publication US8592426B2, “Aryl-benzocycloalkyl amide derivatives” (Hoffmann—La Roche Inc., priority 2011, dated 2013).
pIC50, pKi: −log10 of the molar value.

What was measured:
[1] = target: T1, Bradykinin-1 receptor (Homo sapiens (Human), UniProt P46663); experiment: Receptor binding assay (B1R Binding Assay), [3H]-Kallidin (Des Arg10, Leu9) displacement; details: membranes from CHO-K1 cells overexpressing Bradykinin-1 receptor; 6 nM radioligand
Procedure: Binding assays were done with membranes from CHO-K1 cells overexpressing Bradykinin-1 receptor.
To determine non-specific binding 10 μM Lys-(Des-Arg^9)-Bradykinin (Bachem) was added. Membranes were harvested through GF/B (glass fiber filter; PerkinElmer) plates, equilibrated with 0.5% polyethylenimine, air dried at 50° C. for 2 h. Radioactivity was determined by counting in a topcounter (NXT Packard).

[2] = target: T1, Bradykinin-1 receptor; experiment: Calcium mobilization assay (FLIPR, Fluo-4) in GeneBLAzer Bradykinin (B1)-NFAT-bla CHO-K1 cells; type: cell-based; details: antagonist activity; CHO-K1 cells stably overexpressing the human bradykinin 1 receptor; read-out: Ca mobilization Assay IC50
Procedure: Calcium Mobilization Assay
GeneBLAzer® Bradykinin (B1)-NFAT-bla CHO-K1 cells (from Invitrogen) stably overexpressing the human bradykinin 1 receptor were cultured in DMEM (high glucose) supplemented with 10% dialysed FBS, 1% NEAA (non essential amino acids) 1% penicillin/streptomycin, 1% G418 and 0.1 mg/ml zeocin.
For the assay cells were grown overnight in 384-well black clear flat bottom polystyrene plates (Costar) at 37° C. at 5% CO2. After washing with DMEM, 20 mM Hepes, 2.5 mM probenecid, 0.1% BSA (DMEM assay buffer) cells were loaded with 4 μM Fluo-4 in the same DMEM assay buffer for 2 hours at 30° C. Excess dye was removed and cells were washed with DMEM assay buffer. 384-well compound plates were prepared with DMEM assay buffer/0.5% DMSO with or without various concentrations of test compounds. Usually compounds were tested for agonist and antagonist activity.
Test compounds were added to the assay plate and agonist activity was monitored as fluorescence for 80 seconds with a FLIPR (488 nm excitation; 510-570 nm emission; Molecular Devices). After 20-30 min. of incubation at 30° C., 20 nM […] (R&D; Roche) was added and fluorescence was monitored again for 80 seconds. Increases in intracellular calcium are reported as maximum fluorescence after agonist exposure minus basal fluorescence before exposure.

T1 sequence (P46663 whole entry): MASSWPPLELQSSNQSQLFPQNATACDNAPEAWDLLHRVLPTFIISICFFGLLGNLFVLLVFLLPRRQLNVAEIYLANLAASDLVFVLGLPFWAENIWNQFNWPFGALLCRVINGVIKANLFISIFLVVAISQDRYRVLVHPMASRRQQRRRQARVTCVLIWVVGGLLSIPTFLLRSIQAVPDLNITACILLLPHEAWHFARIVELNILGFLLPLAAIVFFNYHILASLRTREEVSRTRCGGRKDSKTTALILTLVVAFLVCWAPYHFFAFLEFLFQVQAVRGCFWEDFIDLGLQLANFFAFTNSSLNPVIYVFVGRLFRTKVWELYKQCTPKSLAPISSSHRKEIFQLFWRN

Row | SMILES | pKi [1] | pIC50 [2]
1 | Cc1nc(-c2c(F)cc(Cl)cc2-c2cnc3c(c2)CCC3NC(=O)C2(N)CC2)no1 (racemic) [Example 37, 1-Amino-cyclopropanecarboxylic acid{(rac)-3-[5-chloro-3-fluoro-2-(5-methyl-[1,2,4]oxadiazol-3-yl)-phenyl]-6,7-dihydro-5H-[1]pyrindin-7-yl}-amide] | 6.23 | 6.52
2 | COc1cc(C(=O)NC2(C(=O)NC3CCc4cc(-c5cc(Cl)cc(F)c5-c5nnn(C)n5)cnc43)CC2)on1 (racemic) [Example 59, 3-Methoxy-isoxazole-5-carboxylic acid(1-{(rac)-3-[5-chloro-3-fluoro-2-(2-methyl-2H-tetrazol-5-yl)-phenyl]-6,7-dihydro-5H-[1]pyrindin-7-ylcarbamoyl}-cyclopropyl)-amide] | 8.46 | 9.52
3 | Cc1nc(-c2c(F)cc(Cl)cc2-c2ccc3c(c2)CCC3NC(=O)C2(NC(=O)C(F)(F)F)CC2)no1 (racemic) [Example 4, 1-(2,2,2-Trifluoro-acetylamino)-cyclopropanecarboxylic acid (rac)-{5-[5-chloro-3-fluoro-2-(5-methyl-[1,2,4]oxadiazol-3-yl)-phenyl]-indan-1-yl}-amide] | 7.69 | 8.70
4 | Cn1nnc(-c2c(F)cc(Cl)cc2-c2ccc3c(c2)CCC3(C)NC(=O)C2(NC(=O)C(F)(F)F)CC2)n1 (racemic) [Example 18, 1-(2,2,2-Trifluoro-acetylamino)-cyclopropanecarboxylic acid{(rac)-5-[5-chloro-3-fluoro-2-(2-methyl-2H-tetrazol-5-yl)-phenyl]-1-methyl-indan-1-yl}-amide] | 8.17 | 9.30
5 | Cn1nnc(-c2c(F)cc(Cl)cc2-c2ccc3c(c2)SCC3NC(=O)C2(NC(=O)c3cncnc3)CC2)n1 (racemic) [Example 63, Pyrimidine-5-carboxylic acid(1-{(rac)-6-[5-chloro-3-fluoro-2-(2-methyl-2H-tetrazol-5-yl)-phenyl]-2,3-dihydro-benzo[b]thiophen-3-ylcarbamoyl}-cyclopropyl)-amide] | 8.32 | 9.70
6 | Cc1nnc(C(=O)NC2(C(=O)NC3CSc4cc(-c5cc(Cl)cc(F)c5-c5nnn(C)n5)ccc43)CC2)o1 (racemic) [Example 62, 5-Methyl-[1,3,4]oxadiazole-2-carboxylic acid(1-{(rac)-6-[5-chloro-3-fluoro-2-(2-methyl-2H-tetrazol-5-yl)-phenyl]-2,3-dihydro-benzo[b]thiophen-3-ylcarbamoyl}-cyclopropyl)-amide] | 7.91 | 8.32
7 | Cc1nc(-c2c(F)cc(Cl)cc2-c2cnc3c(c2)CCC3NC(=O)C2(NC(=O)c3ccnnc3)CC2)no1 (single isomer, unassigned) [Example 40, Pyridazine-4-carboxylic acid(1-{(R or S) 3-[5-chloro-3-fluoro-2-(5-methyl-[1,2,4]oxadiazol-3-yl)-phenyl]-6,7-dihydro-5H-[1]pyrindin-7-ylcarbamoyl}-cyclopropyl)-amide] | 6.89 | 7.45
8 | Cc1nc(-c2c(F)cc(Cl)cc2-c2cc(F)c3c(c2)CCC3NC(=O)C2(N)CC2)no1 (racemic) [Example 32, 1-Amino-cyclopropanecarboxylic acid{(rac)-5-[5-chloro-3-fluoro-2-(5-methyl-[1,2,4]oxadiazol-3-yl)-phenyl]-7-fluoro-indan-1-yl}-amide] | 6.34 | 7.02
9 | COC(=O)c1c(Cl)cccc1-c1ccc2c(c1)CC[C@@H]2NC(=O)C1(NC(=O)C(F)(F)F)COC1 [Example 6, 2-Chloro-6-((S)-1-{[3-(2,2,2-trifluoro-acetylamino)-oxetane-3-carbonyl]-amino}-indan-5-yl)-benzoic acid methyl ester] | 6.42 | 6.34
10 | Cn1nnc(-c2c(F)cc(Cl)cc2-c2ccc3c(c2)CC[C@@H]3NC(=O)C2(NC(=O)C(F)(F)F)COC2)n1 [Example 8, 3-(2,2,2-Trifluoro-acetylamino)-oxetane-3-carboxylic acid{(S)-5-[5-chloro-3-fluoro-2-(2-methyl-2H-tetrazol-5-yl)-phenyl]-indan-1-yl}-amide] | 7.52 | 7.61
11 | Cn1nnc(-c2c(F)cc(Cl)cc2-c2ccc3c(c2)OCC3NC(=O)C2(NC(=O)C(F)(F)F)CC2)n1 (racemic) [Example 20, 1-(2,2,2-Trifluoro-acetylamino)-cyclopropanecarboxylic acid{(rac)-6-[5-chloro-3-fluoro-2-(2-methyl-2H-tetrazol-5-yl)-phenyl]-2,3-dihydro-benzofuran-3-yl}-amide] | 7.62 | 8.44
12 | COc1ncc(C(=O)NC2(C(=O)NC3COc4cc(-c5cc(Cl)cc(F)c5-c5noc(C)n5)ccc43)CC2)cn1 (racemic) [Example 47, 2-Methoxy-pyrimidine-5-carboxylic acid(1-{(rac)-6-[5-chloro-3-fluoro-2-(5-methyl-[1,2,4]oxadiazol-3-yl)-phenyl]-2,3-dihydro-benzofuran-3-ylcarbamoyl}-cyclopropyl)-amide] | 8.27 | 9.70
13 | COc1cc(C(=O)NC2(C(=O)N[C@H]3CCc4cc(-c5cc(Cl)cc(F)c5-c5noc(C)n5)ccc43)CC2)on1 [Example 30, 3-Methoxy-isoxazole-5-carboxylic acid(1-{(S)-5-[5-chloro-3-fluoro-2-(5-methyl-[1,2,4]oxadiazol-3-yl)-phenyl]-indan-1-ylcarbamoyl}-cyclopropyl)-amide] | 8.41 | 10.00
14 | Cc1nc(-c2c(F)cc(Cl)cc2-c2ccc3c(c2)CC[C@@H]3NC(=O)C2(NC(=O)c3ccno3)COC2)no1 [Example 51, Isoxazole-5-carboxylic acid (3-{(S)-5-[5-chloro-3-fluoro-2-(5-methyl-[1,2,4]oxadiazol-3-yl)-phenyl]-indan-1-ylcarbamoyl}-oxetan-3-yl)-amide] | 7.93 | 8.57
15 | O=C(NC1(C(=O)NC2CCc3cc(-c4cc(Cl)cc(Cl)c4OCC(F)F)ccc32)CC1)C(F)(F)F (racemic) [Example 2, 1-(2,2,2-Trifluoro-acetylamino)-cyclopropanecarboxylic acid (rac)-{5-[3,5-dichloro-2-(2,2-difluoro-ethoxy)-phenyl]-indan-1-yl}-amide] | 6.84 | 7.11
16 | Cc1cc(C(=O)NC2(C(=O)N[C@H]3CCc4cc(-c5cc(Cl)cc(F)c5-c5noc(C)n5)ccc43)COC2)on1 [Example 52, 3-Methyl-isoxazole-5-carboxylic acid (3-{(S)-5-[5-chloro-3-fluoro-2-(5-methyl-[1,2,4]oxadiazol-3-yl)-phenyl]-indan-1-ylcarbamoyl}-oxetan-3-yl)-amide] | 7.59 | 8.37
17 | O=C(NC1(C(=O)NC2CCCc3cc(-c4cc(Cl)cc(Cl)c4OCC(F)F)ccc32)CC1)C(F)(F)F (racemic) [Example 9, 1-(2,2,2-Trifluoro-acetylamino)-cyclopropanecarboxylic acid{(rac)-6-[3,5-dichloro-2-(2,2-difluoro-ethoxy)-phenyl]-1,2,3,4-tetrahydro-naphthalen-1-yl}-amide] | 6.63 | 7.08
18 | Cc1nc(-c2c(F)cc(Cl)cc2-c2ccc3c(c2)CC[C@@H]3NC(=O)C2(N)CC2)no1 [Example 24, 1-Amino-cyclopropanecarboxylic acid{(S)-5-[5-chloro-3-fluoro-2-(5-methyl-[1,2,4]oxadiazol-3-yl)-phenyl]-indan-1-yl}-amide] | 7.44 | 8.30
19 | Cc1nc(-c2c(F)cc(Cl)cc2-c2ccc3c(c2)CC[C@@H]3NC(=O)C2(NC(=O)OC(C)(C)C)CC2)no1 [Example 23, (1-{(S)-5-[5-Chloro-3-fluoro-2-(5-methyl-[1,2,4]oxadiazol-3-yl)-phenyl]-indan-1-ylcarbamoyl}-cyclopropyl)-carbamic acid tert-butyl ester] | 6.17 | 6.48
20 | Cn1nnc(-c2c(F)cc(Cl)cc2-c2ccc3c(c2)SCC3NC(=O)C2(N)CC2)n1 (racemic) [Example 61, 1-Amino-cyclopropanecarboxylic acid{(rac)-6-[5-chloro-3-fluoro-2-(2-methyl-2H-tetrazol-5-yl)-phenyl]-2,3-dihydro-benzo[b]thiophen-3-yl}-amide] | 6.58 | 7.76
21 | Cc1nc(-c2c(F)cc(Cl)cc2-c2ccc3c(c2)CC[C@@H]3NC(=O)C2(NC(=O)c3ccno3)CC2)no1 [Example 28, Isoxazole-5-carboxylic acid(1-{(S)-5-[5-chloro-3-fluoro-2-(5-methyl-[1,2,4]oxadiazol-3-yl)-phenyl]-indan-1-ylcarbamoyl}-cyclopropyl)-amide] | 8.39 | 9.52
22 | Cn1nnc(-c2c(F)cc(Cl)cc2-c2cnc3c(c2)CCC3NC(=O)C2(NC(=O)c3ccno3)CC2)n1 (racemic) [Example 57, Isoxazole-5-carboxylic acid(1-{(rac)-3-[5-chloro-3-fluoro-2-(2-methyl-2H-tetrazol-5-yl)-phenyl]-6,7-dihydro-5H-[1]pyrindin-7-ylcarbamoyl}-cyclopropyl)-amide] | 8.24 | 9.40
